Data from patent US11530221B2, “Pyrimido[4,5-d]pyrimidin-2-one derivatives as protein kinase inhibitors” (KOREA INSTITUTE OF SCIENCE AND TECHNOLOGY, priority 2019, dated 2022).
Where two headings read alike, the source gives them in different places. Square brackets hold non-standard residues; d marks the D form. Peptide text beside a SMILES is read from it. * marks the point of attachment. X1 = Cc1ccc(Nc2ncc3c(n2)N(C)C(=O)N(c2cc(C(=O)*)ccc2C)C3)cn1; Chg = N[C@H](C(=O)O)C1CCCCC1; Aze = O=C(O)[C@@H]1CCN1; Nva = CCC[C@H](N)C(=O)O; Aib = CC(C)(N)C(=O)O

Experiments:
Assay type in all cases: biochemical
p38a/MAPK14 = p38a/MAPK14 (Homo sapiens, UniProt Q16539); assay: IC50 inhibitory activity against p38a/MAPK14 kinase; conditions: read-out: p38a/MAPK14 IC50
Chain of p38a/MAPK14 (Q16539 whole entry): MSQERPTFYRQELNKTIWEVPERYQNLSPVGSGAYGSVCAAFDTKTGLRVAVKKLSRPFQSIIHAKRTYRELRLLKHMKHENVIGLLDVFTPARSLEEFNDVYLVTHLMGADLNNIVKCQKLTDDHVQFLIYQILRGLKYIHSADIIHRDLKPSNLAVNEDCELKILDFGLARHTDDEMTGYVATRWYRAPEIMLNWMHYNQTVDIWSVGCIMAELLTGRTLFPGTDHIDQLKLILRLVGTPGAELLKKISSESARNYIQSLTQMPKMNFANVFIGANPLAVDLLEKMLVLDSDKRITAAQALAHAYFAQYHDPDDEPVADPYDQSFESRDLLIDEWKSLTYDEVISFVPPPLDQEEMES
Experimental: (§1) IC50 values were calculated by measuring the inhibitory activity against LCK, c-Src, p38a/MAPK14, ABL1, DDR1 and FGR kinases of the compounds of the present invention.

ABL1 = ABL1 (Homo sapiens, UniProt P00519); assay: IC50 inhibitory activity against ABL1 kinase
Experimental: as §1

ABL1 (T315I) = ABL1 (T315I) (Homo sapiens, UniProt P00519, T315I); assay: IC50 inhibitory activity against ABL1 (T315I) kinase; conditions: read-out: ABL1 (T315I) IC50
Experimental: as §1

LCK = LCK (Homo sapiens, UniProt P06239); assay: IC50 inhibitory activity against LCK kinase
Chain of LCK (P06239 whole entry): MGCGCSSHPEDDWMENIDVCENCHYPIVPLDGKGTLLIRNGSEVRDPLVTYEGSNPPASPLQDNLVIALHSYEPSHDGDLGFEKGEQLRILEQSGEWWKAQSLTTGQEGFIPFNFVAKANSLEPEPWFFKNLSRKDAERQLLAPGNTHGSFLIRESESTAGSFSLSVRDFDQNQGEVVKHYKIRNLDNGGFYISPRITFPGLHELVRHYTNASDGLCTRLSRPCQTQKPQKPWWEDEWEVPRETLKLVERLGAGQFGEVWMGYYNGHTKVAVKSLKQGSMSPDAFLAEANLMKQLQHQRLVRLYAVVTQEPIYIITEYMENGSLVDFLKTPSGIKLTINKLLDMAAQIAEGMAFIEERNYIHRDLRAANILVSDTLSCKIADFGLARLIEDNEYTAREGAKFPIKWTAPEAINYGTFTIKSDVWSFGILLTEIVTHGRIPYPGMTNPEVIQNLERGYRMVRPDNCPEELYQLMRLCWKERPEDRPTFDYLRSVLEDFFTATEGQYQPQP
Experimental: as §1

c-Src = c-Src (Homo sapiens, UniProt P12931); assay: IC50 inhibitory activity against c-Src kinase
Chain of c-Src (P12931 whole entry): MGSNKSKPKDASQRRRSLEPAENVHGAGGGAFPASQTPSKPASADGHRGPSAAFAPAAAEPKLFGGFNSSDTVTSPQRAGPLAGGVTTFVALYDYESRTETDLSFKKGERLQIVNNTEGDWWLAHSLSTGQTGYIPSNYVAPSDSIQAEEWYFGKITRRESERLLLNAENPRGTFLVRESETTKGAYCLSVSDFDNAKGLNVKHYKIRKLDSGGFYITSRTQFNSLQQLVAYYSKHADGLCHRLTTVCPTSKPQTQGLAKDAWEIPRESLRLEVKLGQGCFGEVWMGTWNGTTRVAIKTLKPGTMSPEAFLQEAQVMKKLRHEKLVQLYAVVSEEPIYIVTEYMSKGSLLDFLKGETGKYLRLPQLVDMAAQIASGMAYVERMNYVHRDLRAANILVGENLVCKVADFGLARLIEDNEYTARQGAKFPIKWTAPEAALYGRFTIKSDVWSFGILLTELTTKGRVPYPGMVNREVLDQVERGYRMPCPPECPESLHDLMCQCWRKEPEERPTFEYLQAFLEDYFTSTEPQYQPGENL
Experimental: as §1

Cc1ccc(Nc2ncc3c(n2)N(C)C(=O)N(c2cc(NC(=O)[C@H](C)NC(=O)c4ccc([N+](=O)[O-])c(OCC(C)C)c4)ccc2C)C3)cn1 [Example 53, (S)-3-isobutoxy-N-(1-((4-methyl-3-(1-methyl-7-((6-methylpyridin-3-yl)amino)-2-oxo-1,4-dihydropyrimido[4,5-d]pyrimidin-3(2H)-yl)phenyl)amino)-2-oxopropan-2-yl)-4-nitrobenzamide]
IC50 (p38a/MAPK14): > 600 nM
IC50 (ABL1; read-out: ABL1 IC50): > 600 nM

Cc1ccc(Nc2ncc3c(n2)N(C)C(=O)N(c2cc(NC(=O)c4ccc([N+](=O)[O-])c(OCC(C)C)c4)ccc2C)C3)cn1 [Example 49, 3-isobutoxy-N-(4-methyl-3-(1-methyl-7-((6-methylpyridin-3-yl)amino)-2-oxo-1,4-dihydropyrimido[4,5-d]pyrimidin-3(2H)-yl)phenyl)-4-nitrobenzamide]
IC50 (p38a/MAPK14): 1 to 200 nM
IC50 (ABL1 (T315I)): > 600 nM
IC50 (ABL1; read-out: ABL1 IC50): 1 to 200 nM

Cc1ccc(Nc2ncc3c(n2)N(C)C(=O)N(c2cc(NC(=O)[C@@H]4CN(C(=O)OCC(Cl)(Cl)Cl)C[C@H]4C(=O)NCc4ccc(Cl)cc4)ccc2C)C3)cn1 [Example 57, 2,2,2-trichloroethyl (3S,4S)-3-((4-chlorobenzyl)carbamoyl)-4-((4-methyl-3-(1-methyl-7-((6-methylpyridin-3-yl)amino)-2-oxo-1,4-dihydropyrimido[4,5-d]pyrimidin-3(2H)-yl)phenyl)carbamoyl)pyrrolidine-1-carboxylate]
IC50 (p38a/MAPK14): 1 to 200 nM
IC50 (LCK; read-out: LCK IC50): 1 to 200 nM
IC50 (ABL1; read-out: ABL1 IC50): 1 to 200 nM
IC50 (c-Src; read-out: c-Src IC50): 1 to 200 nM

Cc1ccc(Nc2ncc3c(n2)N(C)C(=O)N(c2cc(C(=O)N4C[C@@H](C(=O)NCCc5c[nH]c6ccccc56)[C@H](C(=O)NCc5ccc(Cl)cc5)C4)ccc2C)C3)cn1 [Example 48, (3S,4S)—N^3-(2-(1H-indol-3-yl)ethyl)-N^4-(4-chlorobenzyl)-1-(4-methyl-3-(1-methyl-7-((6-methylpyridin-3-yl)amino)-2-oxo-1,4-dihydropyrimido[4,5-d]pyrimidin-3(2H)-yl)benzoyl)pyrrolidine-3,4-dicarboxamide]
IC50 (p38a/MAPK14): 400 to 600 nM
IC50 (LCK; read-out: LCK IC50): 1 to 200 nM
IC50 (ABL1; read-out: ABL1 IC50): 1 to 200 nM
IC50 (c-Src; read-out: c-Src IC50): 1 to 200 nM

Cc1ccc(Nc2ncc3c(n2)N(C)C(=O)N(c2cc(C(=O)N[C@@H](C)C(=O)N4CCC[C@H]4C(=O)NC(C)(C)C(=O)N[C@@H](CC(C)C)C(=O)N(C)C)ccc2C)C3)cn1 [Example 17, (S)—N-(1-(((S)-1-(dimethylamino)-4-methyl-1-oxopentan-2-yl)amino)-2-methyl-1-oxopropan-2-yl)-1-((4-methyl-3-(1-methyl-7-((6-methylpyridin-3-yl)amino)-2-oxo-1,4-dihydropyrimido[4,5-d]pyrimidin-3(2H)-yl)benzoyl)-L-alanyl)pyrrolidine-2-carboxamide] (X1-AP[Aib]L-NMe2)
IC50 (LCK; read-out: LCK IC50): 1 to 200 nM
IC50 (ABL1; read-out: ABL1 IC50): 1 to 200 nM
IC50 (c-Src; read-out: c-Src IC50): 200 to 400 nM

COc1ccc(CCOc2cc(C(=O)Nc3ccc(C)c(N4Cc5cnc(Nc6ccc(C)nc6)nc5N(C)C4=O)c3)ccc2[N+](=O)[O-])cc1 [Example 51, 3-(4-methoxyphenethoxy)-N-(4-methyl-3-(1-methyl-7-((6-methylpyridin-3-yl)amino)-2-oxo-1,4-dihydropyrimido[4,5-d]pyrimidin-3(2H)-yl)phenyl)-4-nitrobenzamide]
IC50 (p38a/MAPK14): 1 to 200 nM
IC50 (LCK; read-out: LCK IC50): 1 to 200 nM
IC50 (ABL1; read-out: ABL1 IC50): 1 to 200 nM

Cc1ccc(Nc2ncc3c(n2)N(C)C(=O)N(c2cc(C(=O)N4C[C@@H](C(=O)NCc5ccccc5)[C@H](C(=O)NCc5ccc(Cl)cc5)C4)ccc2C)C3)cn1 [Example 47, (3S,4S)—N^3-benzyl-N^4-(4-chlorobenzyl)-1-(4-methyl-3-(1-methyl-7-((6-methylpyridin-3-yl)amino)-2-oxo-1,4-dihydropyrimido[4,5-d]pyrimidin-3(2H)-yl)benzoyl)pyrrolidine-3,4-dicarboxamide]
IC50 (p38a/MAPK14): 1 to 200 nM
IC50 (LCK; read-out: LCK IC50): 1 to 200 nM
IC50 (ABL1; read-out: ABL1 IC50): 1 to 200 nM
IC50 (c-Src; read-out: c-Src IC50): 1 to 200 nM

COc1ccc(CCOc2cc(C(=O)N[C@@H](C)C(=O)Nc3ccc(C)c(N4Cc5cnc(Nc6ccc(C)nc6)nc5N(C)C4=O)c3)ccc2[N+](=O)[O-])cc1 [Example 56]
IC50 (p38a/MAPK14): > 600 nM
IC50 (ABL1; read-out: ABL1 IC50): 1 to 200 nM

Cc1ccc(Nc2ncc3c(n2)N(C)C(=O)N(c2cc(C(=O)NCC(=O)N4CCC[C@H]4C(=O)NC(C)(C)C(=O)N[C@@H](CC(C)C)C(=O)N(C)C)ccc2C)C3)cn1 [Example 18, (S)—N-(1-(((S)-1-(dimethylamino)-4-methyl-1-oxopentan-2-yl)amino)-2-methyl-1-oxopropan-2-yl)-1-((4-methyl-3-(1-methyl-7-((6-methylpyridin-3-yl)amino)-2-oxo-1,4-dihydropyrimido[4,5-d]pyrimidin-3(2H)-yl)benzoyl)glycyl)pyrrolidine-2-carboxamide] (X1-GP[Aib]L-NMe2)
IC50 (LCK): 200 to 400 nM
IC50 (ABL1): 1 to 200 nM
IC50 (c-Src): 400 to 600 nM

Cc1ccc(Nc2ncc3c(n2)N(C)C(=O)N(c2cc(NC(=O)c4ccc([N+](=O)[O-])c(OCCc5c[nH]c6ccccc56)c4)ccc2C)C3)cn1 [Example 50, 3-(2-(1H-indol-3-yl)ethoxy)-N-(4-methyl-3-(1-methyl-7-((6-methylpyridin-3-yl)amino)-2-oxo-1,4-dihydropyrimido[4,5-d]pyrimidin-3(2H)-yl)phenyl)-4-nitrobenzamide]
IC50 (p38a/MAPK14): 200 to 400 nM
IC50 (ABL1; read-out: ABL1 IC50): 1 to 200 nM

Cc1ccc(Nc2ncc3c(n2)N(C)C(=O)N(c2cc(C(=O)N[C@H](C(=O)N4CC[C@H]4C(=O)NC(C)(C)C(=O)N[C@@H](CC(C)C)C(=O)N(C)C)C(C)C)ccc2C)C3)cn1 [Example 15, (S)—N-(1-(((S)-1-(dimethylamino)-4-methyl-1-oxopentan-2-yl)amino)-2-methyl-1-oxopropan-2-yl)-1-((4-methyl-3-(1-methyl-7-((6-methylpyridin-3-yl)amino)-2-oxo-1,4-dihydropyrimido[4,5-d]pyrimidin-3(2H)-yl)benzoyl)-L-valyl)azetidine-2-carboxamide] (X1-V[Aze][Aib]L-NMe2)
IC50 (LCK): 200 to 400 nM
IC50 (ABL1): 1 to 200 nM
IC50 (c-Src): > 600 nM

Cc1ccc(Nc2ncc3c(n2)N(C)C(=O)N(c2cc(C(=O)N[C@@H](CC(C)C)C(=O)N4CCC[C@H]4C(=O)NC(C)(C)C(=O)N[C@@H](CC(C)C)C(=O)N(C)C)ccc2C)C3)cn1 [Example 20, (S)—N-(1-(((S)-1-(dimethylamino)-4-methyl-1-oxopentan-2-yl)amino)-2-methyl-1-oxopropan-2-yl)-1-((4-methyl-3-(1-methyl-7-((6-methylpyridin-3-yl)amino)-2-oxo-1,4-dihydropyrimido[4,5-d]pyrimidin-3(2H)-yl)benzoyl)-L-lucyl)pyrrolidine-2-carboxamide] (X1-LP[Aib]L-NMe2)
IC50 (LCK): 1 to 200 nM
IC50 (ABL1): 1 to 200 nM
IC50 (c-Src): 1 to 200 nM

Cc1ccc(Nc2ncc3c(n2)N(C)C(=O)N(c2cc(C(=O)N[C@H](C(=O)N4CCC[C@H]4C(=O)NC(C)(C)C(=O)N[C@@H](CC(C)C)C(=O)N(C)C)C4CCCCC4)ccc2C)C3)cn1 [Example 19, (S)-1-((S)-2-cyclohexyl-2-((4-methyl-3-(1-methyl-7-((6-methylpyridin-3-yl)amino)-2-oxo-1,4-dihydropyrimido[4,5-d]pyrimidin-3(2H)-yl)benzamido)acetyl)-N-(1-(((S)-1-dimethylamino)-4-methyl-1-oxopentan-2-yl)amino)-2-methyl-1-oxopropan-2-yl]pyrrolidine-2-carboxamide] (X1-[Chg]P[Aib]L-NMe2)
IC50 (LCK): 1 to 200 nM
IC50 (ABL1): 200 to 400 nM
IC50 (c-Src): 400 to 600 nM

Cc1ccc(Nc2ncc3c(n2)N(C)C(=O)N(c2cc(NC(=O)[C@H](CC(C)C)NC(=O)c4ccc([N+](=O)[O-])c(OCC(C)C)c4)ccc2C)C3)cn1 [Example 54, (S)-3-isobutoxy-N-(4-methyl-1-((4-methyl-3-(1-methyl-7-((6-methylpyridin-3-yl)amino)-2-oxo-1,4-dihydropyrimido[4,5-d]pyrimidin-3(2H)-yl)phenyl)amino)-1-oxopentan-2-yl)-4-nitrobenzamide]
IC50 (p38a/MAPK14): > 600 nM
IC50 (ABL1 (T315I)): > 600 nM
IC50 (ABL1; read-out: ABL1 IC50): 1 to 200 nM

CCC[C@H](NC(=O)c1ccc(C)c(N2Cc3cnc(Nc4ccc(C)nc4)nc3N(C)C2=O)c1)C(=O)N1CCC[C@H]1C(=O)NC(C)(C)C(=O)N[C@@H](CC(C)C)C(=O)N(C)C [Example 21, (S)—N-(1-(((S)-1-(dimethylamino)-4-methyl-1-oxopentan-2-yl)amino)-2-methyl-1-oxopropan-2-yl)-1-((S)-2-(4-methyl-3-(1-methyl-7-((6-methylpyridin-3-yl)amino)-2-oxo-1,4-dihydropyrimido[4,5-d]pyrimidin-3(2H)-yl)benzamido)pentanoyl)pyrrolidine-2-carboxamide] (X1-[Nva]P[Aib]L-NMe2)
IC50 (LCK): 1 to 200 nM
IC50 (ABL1): 1 to 200 nM
IC50 (c-Src): 400 to 600 nM

Cc1ccc(Nc2ncc3c(n2)N(C)C(=O)N(c2cc(NC(=O)CNC(=O)c4ccc([N+](=O)[O-])c(OCC(C)C)c4)ccc2C)C3)cn1 [Example 52, 3-isobutoxy-N-(2-((4-methyl-3-(1-methyl-7-((6-methylpyridin-3-yl)amino)-2-oxo-1,4-dihydropyrimido[4,5-d]pyrimidin-3(2H)-yl)phenyl)amino)-2-oxoethyl)-4-nitrobenzamide]
IC50 (p38a/MAPK14): 400 to 600 nM
IC50 (ABL1 (T315I)): > 600 nM
IC50 (ABL1; read-out: ABL1 IC50): 1 to 200 nM
